Test system: T1, PLZ1.4 (PhotoLanZyme 1.4)
T1 construct: de novo design; single-chain fusion of two TFD subunits via one Gly; active-site W6 and W175 removed, two active-site mutations, eight surface mutations (6x D to N, 2x E to Q); loaded with CeCl3
Test: Michaelis-Menten kinetics of photocatalytic diol cleavage
Type: biochemical, synthetic construct
Details: CeCl3-loaded enzyme, visible light, aerobic, aqueous buffer

| Km ((R,R) isomer per Figure 2F) [mM] | Km [mM] | Structure (SMILES) |
| --- | --- | --- |
| 2.9 ± 0.4 |  | O[C@H](c1ccccc1)[C@H](O)c1ccccc1 [(R,R)-1] |
|  | 5.5 ± 1 | OCC(Oc1ccccc1)C(O)c1ccccc1 (centres unmarked) [compound 24, lignin surrogate 24] |

From article PMC11440500, “A De Novo Metalloenzyme for Cerium Photoredox Catalysis” (Journal of the American Chemical Society, 2024)
